Calls of active or inactive are those of the source. No cut-off for these calls is given here.
Columns and labels:
Rattus norvegicus [1] = experiment: Anti-pulmonary fibrosis activity in Sprague-Dawley rat model of BLM-induced idiopathic pulmonary fibrosis assessed as reduction in enhanced pause at 150 mg/kg, po dosed daily for 28 days by mka noninvasive pulmonary monitoring system based method; assay type: functional, organism-based
Rattus norvegicus [2] = experiment: Anti-pulmonary fibrosis activity in Sprague-Dawley rat model of BLM-induced idiopathic pulmonary fibrosis assessed as reduction in lung structural damage at 150 mg/kg, po dosed daily for 28 days by H and E staining based assay; assay type: functional, organism-based
Rattus norvegicus [3] = experiment: Anti-pulmonary fibrosis activity in Sprague-Dawley rat model of BLM-induced idiopathic pulmonary fibrosis assessed as reduction in end-expiratory pause at 150 mg/kg, po dosed daily for 28 days by mka noninvasive pulmonary monitoring system based method; assay type: functional, organism-based
Rattus norvegicus [4] = experiment: Anti-pulmonary fibrosis activity in Sprague-Dawley rat model of BLM-induced idiopathic pulmonary fibrosis assessed as reduction in peak expiratory flow at 150 mg/kg, po dosed daily for 28 days by mka noninvasive pulmonary monitoring system based method; assay type: functional, organism-based
Rattus norvegicus [5] = experiment: Anti-pulmonary fibrosis activity in Sprague-Dawley rat model of BLM-induced idiopathic pulmonary fibrosis assessed as reduction in mid-expiratory flow at 150 mg/kg, po dosed daily for 28 days by mka noninvasive pulmonary monitoring system based method; assay type: functional, organism-based
Rattus norvegicus [6] = experiment: Anti-pulmonary fibrosis activity in Sprague-Dawley rat model of BLM-induced idiopathic pulmonary fibrosis assessed as inhibition of collagen deposition at 150 mg/kg, po dosed daily for 28 days by Masson staining based assay; assay type: functional, organism-based
Rattus norvegicus [7] = experiment: Anti-pulmonary fibrosis activity in Sprague-Dawley rat model of BLM-induced idiopathic pulmonary fibrosis assessed as reduction in peak inspiratory flow at 150 mg/kg, po dosed daily for 28 days by mka noninvasive pulmonary monitoring system based method; assay type: functional, organism-based
Rattus norvegicus [8] = experiment: Anti-pulmonary fibrosis activity in Sprague-Dawley rat model of BLM-induced idiopathic pulmonary fibrosis assessed as reduction in end-inspiratory pause at 150 mg/kg, po dosed daily for 28 days by mka noninvasive pulmonary monitoring system based method; assay type: functional, organism-based
[9] = target: T1, Dual specificity calcium/calmodulin-dependent 3',5'-cyclic nucleotide phosphodiesterase 1C (Homo sapiens, UniProt Q14123); experiment: Inhibition of PDE1C2 (147 to 531 residues) (unknown origin) using [3H]-cGMP substrate incubated for 15 mins by liquid scintillation counting method
T1 sequence (Q14123 whole entry, the tested form may be a part): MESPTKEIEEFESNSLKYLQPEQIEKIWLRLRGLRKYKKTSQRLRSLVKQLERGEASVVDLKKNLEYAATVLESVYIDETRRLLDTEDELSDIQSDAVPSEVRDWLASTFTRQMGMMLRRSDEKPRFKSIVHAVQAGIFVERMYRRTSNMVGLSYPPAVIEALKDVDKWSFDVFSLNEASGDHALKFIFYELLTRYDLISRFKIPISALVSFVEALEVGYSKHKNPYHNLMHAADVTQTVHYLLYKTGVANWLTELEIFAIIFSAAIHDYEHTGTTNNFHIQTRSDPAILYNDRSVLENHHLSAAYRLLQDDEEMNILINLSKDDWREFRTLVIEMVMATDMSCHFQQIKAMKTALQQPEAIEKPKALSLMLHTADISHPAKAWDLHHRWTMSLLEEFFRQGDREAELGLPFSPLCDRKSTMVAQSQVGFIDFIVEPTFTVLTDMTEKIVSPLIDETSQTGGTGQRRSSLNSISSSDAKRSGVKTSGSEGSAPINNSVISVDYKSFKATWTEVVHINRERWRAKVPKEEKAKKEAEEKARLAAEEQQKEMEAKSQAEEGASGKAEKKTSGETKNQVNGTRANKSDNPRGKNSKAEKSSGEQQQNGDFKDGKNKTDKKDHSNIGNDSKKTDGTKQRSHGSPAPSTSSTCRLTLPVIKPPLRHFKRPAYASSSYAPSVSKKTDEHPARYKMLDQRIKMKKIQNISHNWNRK

[10] = Half life in rat liver microsomes; assay type: ADME, Microsome
[11] = target: T1, Dual specificity calcium/calmodulin-dependent 3',5'-cyclic nucleotide phosphodiesterase 1C; experiment: Inhibition of PDE1C2 (147 to 531 residues) (unknown origin) at 100 nM using [3H]-cGMP substrate incubated for 15 mins by liquid scintillation counting method relative to control
[12] = target: High affinity cGMP-specific 3',5'-cyclic phosphodiesterase 9A (Homo sapiens, UniProt O76083); experiment: Inhibition of PDE9A (181 to 506 residues) (unknown origin) using [3H]-cGMP substrate incubated for 15 mins by liquid scintillation counting method
High affinity cGMP-specific 3',5'-cyclic phosphodiesterase 9A, sequence (O76083 whole entry, the tested form may be a part): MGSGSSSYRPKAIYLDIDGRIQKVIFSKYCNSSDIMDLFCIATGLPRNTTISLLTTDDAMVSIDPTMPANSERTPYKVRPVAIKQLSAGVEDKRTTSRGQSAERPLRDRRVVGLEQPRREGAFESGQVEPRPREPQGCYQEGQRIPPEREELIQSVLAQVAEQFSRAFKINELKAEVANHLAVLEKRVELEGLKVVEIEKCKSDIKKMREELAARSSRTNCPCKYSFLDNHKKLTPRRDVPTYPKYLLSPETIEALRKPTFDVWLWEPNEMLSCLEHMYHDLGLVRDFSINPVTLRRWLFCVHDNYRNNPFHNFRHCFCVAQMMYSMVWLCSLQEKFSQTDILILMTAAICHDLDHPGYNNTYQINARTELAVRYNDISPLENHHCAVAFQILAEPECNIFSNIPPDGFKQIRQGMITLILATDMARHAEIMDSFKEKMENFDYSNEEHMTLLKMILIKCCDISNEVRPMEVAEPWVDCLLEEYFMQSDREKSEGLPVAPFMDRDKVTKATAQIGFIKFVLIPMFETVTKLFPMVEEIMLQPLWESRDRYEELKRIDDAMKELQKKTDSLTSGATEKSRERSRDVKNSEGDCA

[13] = target: Dual specificity calcium/calmodulin-dependent 3',5'-cyclic nucleotide phosphodiesterase 1B (Homo sapiens, UniProt Q01064); experiment: Inhibition of PDE1B (146 to 506 residues) (unknown origin) using [3H]-cGMP substrate incubated for 15 mins by liquid scintillation counting method
Dual specificity calcium/calmodulin-dependent 3',5'-cyclic nucleotide phosphodiesterase 1B, sequence (Q01064 whole entry, the tested form may be a part): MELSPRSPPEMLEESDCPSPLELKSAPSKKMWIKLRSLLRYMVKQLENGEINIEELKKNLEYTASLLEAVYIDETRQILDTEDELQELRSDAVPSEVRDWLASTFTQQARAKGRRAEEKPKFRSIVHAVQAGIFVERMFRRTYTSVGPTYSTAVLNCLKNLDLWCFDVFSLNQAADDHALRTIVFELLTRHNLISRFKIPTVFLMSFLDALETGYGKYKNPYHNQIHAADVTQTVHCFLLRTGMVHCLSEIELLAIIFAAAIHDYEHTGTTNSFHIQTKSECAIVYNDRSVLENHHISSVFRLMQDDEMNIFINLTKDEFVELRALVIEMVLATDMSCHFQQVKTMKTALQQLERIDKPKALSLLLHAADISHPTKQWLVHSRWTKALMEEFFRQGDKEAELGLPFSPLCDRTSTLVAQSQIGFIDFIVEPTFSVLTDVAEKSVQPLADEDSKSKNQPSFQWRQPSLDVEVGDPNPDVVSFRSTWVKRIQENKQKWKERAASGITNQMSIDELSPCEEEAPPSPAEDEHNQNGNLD

Row | SMILES | IC50 [9] [nM] | half-life [10] [min] | inhibition [11] [%] | other results
1 | Cc1ccc(=O)n(-c2ccccc2)c1 |  |  |  | Activity (Rattus norvegicus [1]): Active; Activity (Rattus norvegicus [2]): Active; Activity (Rattus norvegicus [3]): Active; Activity (Rattus norvegicus [4]): Active; Activity (Rattus norvegicus [5]): Active; Activity (Rattus norvegicus [6]): Active; Activity (Rattus norvegicus [7]): Active; Activity (Rattus norvegicus [8]): Active
2 | C[C@@H](Nc1nc2c(cnn2C(C)(C)C)c(=O)n1C)c1ccc(Cl)cc1 | 65 |  |  | 
3 | CC(C)n1ncc2c(=O)n(C)c(N[C@H](C)c3ccc(Cl)cc3)nc21 | 57 | 2.2 |  | 
4 | CCn1c(N[C@H](C)c2ccc(Cl)cc2)nc2c(cnn2C2CCCC2)c1=O |  |  | 13 | 
5 | C[C@@H](Nc1nc2c(cnn2C(C)(C)C)c(=O)n1Cc1ccccc1)c1ccc(F)cc1 | 2.6 |  |  | 
6 | C[C@@H](Nc1nc2c(cnn2C2CCCC2)c(=O)n1Cc1ccccc1)c1ccc(Cl)cc1 | 4.7 | 0.5 |  | IC50 [12]: > 10000 nM; IC50 [13]: 23 nM
7 | CC1c2ccccc2CCN1c1nc2c(cnn2C(C)(C)C)c(=O)n1Cc1ccc(F)cc1 (stereo not given) |  |  | 16 | 
8 | C[C@@H](Nc1nc2c(cnn2C(C)(C)C)c(=O)n1Cc1ccccc1)c1ccc(Cl)cc1 | 1.5 | 8.2 |  | 
9 | CC(C)n1ncc2c(=O)n(Cc3ccccc3)c(N[C@H](C)c3ccc(Cl)cc3)nc21 | 0.9 | 2.4 |  | 
10 | CC(C)n1ncc2c(=O)n(Cc3ccsc3)c(N[C@H](C)c3ccc(Cl)cc3)nc21 |  |  | 47 | 
11 | C[C@@H](Nc1nc2c(cnn2C2CCCC2)c(=O)n1C)c1ccc(Cl)cc1 | 258 |  |  | 
12 | CC(C)n1ncc2c(=O)n(Cc3ccc4c(c3)OCO4)c(N[C@H](C)c3ccc(Cl)cc3)nc21 | 20 | 1.6 |  | 
13 | C[C@H](Nc1nc2c(cnn2C(C)(C)C)c(=O)n1Cc1ccccc1)c1ccc(Cl)cc1 | 157 |  |  | 
14 | CC(C)n1ncc2c(=O)n(Cc3ccncc3)c(N[C@H](C)c3ccc(Cl)cc3)nc21 |  |  | 39 | 
15 | CC(C)Cn1c(N[C@H](C)c2ccc(Cl)cc2)nc2c(cnn2C2CCCC2)c1=O |  |  | 5 | 
16 | C[C@@H](Nc1nc2c(cnn2C(C)(C)C)c(=O)n1Cc1ccc2c(c1)OCO2)c1ccc(Cl)cc1 | 27 | 2.1 |  | 
17 | CC(C)(C)n1ncc2c(=O)n(Cc3ccc(F)cc3)c(N[C@H]3CCc4ccccc43)nc21 |  |  | 37 | 
18 | CC(C)(C)n1ncc2c(=O)n(Cc3ccc(F)cc3)c(N[C@@H]3CCc4ccccc43)nc21 |  |  | 54 | 
19 | C[C@@H](Nc1nc2c(cnn2C2CCCC2)c(=O)[nH]1)c1ccc(Cl)cc1 |  |  |  | IC50 [13]: 80 nM
20 | C[C@H](Nc1nc2c(cnn2C(C)(C)C)c(=O)n1Cc1ccccc1)c1ccc(F)cc1 | 245 |  |  | 

— ChEMBL document CHEMBL4610129, “Discovery of Novel Selective and Orally Bioavailable Phosphodiesterase-1 Inhibitors for the Efficient Treatment of Idiopathic Pulmonary Fibrosis” (J Med Chem, 2020)
